From article PMC12751057, “The energy landscape of N-ribosidic bond cleavage catalysed by 2′-deoxynucleoside 5′-phosphate N-hydrolase 1” (Biochemical Journal, 2025) come the findings set out here.

As a reminder, the Ki is the dissociation constant of the complex between target and ligand, obtained from inhibition or displacement.

For assay [1], the target named is T1, 2′-deoxynucleoside 5′-phosphate N-hydrolase 1 (HsDNPH1) (Homo sapiens, UniProt O43598).
T1 construct: gene DNPH1
T1 sequence (O43598 2-174): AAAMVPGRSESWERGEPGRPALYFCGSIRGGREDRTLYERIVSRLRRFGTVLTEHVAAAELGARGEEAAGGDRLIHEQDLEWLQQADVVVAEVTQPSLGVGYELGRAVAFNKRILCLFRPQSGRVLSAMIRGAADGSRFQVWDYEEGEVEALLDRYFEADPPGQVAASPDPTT
Kind of assay: steady-state UV inhibition assay, competitive fit. The format is biochemical.

For assay [2], the target named is T1, 2′-deoxynucleoside 5′-phosphate N-hydrolase 1 (HsDNPH1). The assay can be described thus: single-turnover stopped-flow UV kinetics, k2/k1 ratio from global fit; steady-state hydrolysis. The format is biochemical.
The target of assay [3] is T2, 2′-deoxynucleoside 5′-phosphate N-hydrolase 1 (HsDNPH1) (Homo sapiens, UniProt O43598, E55Q).
T2 construct: gene DNPH1
T2 sequence (O43598 2-174 E55Q): T1 sequence (O43598 2-174) with E54Q
Kind of assay: stopped-flow burst and single-turnover kinetics of the purified variant (turnover, k burst). The format is biochemical.

In assay [4] the target is T3, 2′-deoxynucleoside 5′-phosphate N-hydrolase 1 (HsDNPH1) (Homo sapiens, UniProt O43598, E104Q).
T3 construct: gene DNPH1
T3 sequence (O43598 2-174 E104Q): T1 sequence (O43598 2-174) with E103Q
The assay can be described thus: ITC; also stopped-flow UV binding kinetics (KD app […]) and differential UV spectroscopy. (In general: In ITC the heat of successive injections is recorded.)

Molecules are shown by their SMILES. Residue numbers refer to the chain shown, from its start.

Compound `O=P(O)(O)OC[C@H]1OC(O)[C@H](O)[C@@H]1O` (stereo partly shown) [ribose 5-phosphate] gave a Ki in assay [1] of 6900 ± 800 µM.
For the compound `O=c1[nH]c(=O)n([C@H]2C[C@H](O)[C@@H](COP(=O)(O)O)O2)cc1CO` [5hmdUMP, 5-hydroxymethyl-2′-deoxyuridine 5′-monophosphate], the Kd in assay [2] amounted to 2.36 µM; in assay [4], 1.6 ± 0.4 µM. For the same compound, the rate constant in assay [3] turned out to be 0.270 ± 0.001 s⁻¹.
